Results from patent publication US8506973B2, “Injectable anticancer composition for local administration containing hydroxychloroquine” (priority 2009, dated 2013).

Tests used:
Sarcoma-180 cells = experiment: Inhibitory effect on differentiation of subcutaneously transplanted Sarcoma-180 cells in ICR mice; assay type: in vivo; settings: cisplatin 20 mg/m^2, 12 animals per group, average of two tests
Procedure: A sarcoma-180 cell suspension having a cell concentration of 2×10^7 cells/ml was transplanted by subcutaneous injection into the inguinal region of all the groups excluding the normal group, thereby inducing solid cancer.
On the final day of the test, the animals were biopsied, and the number of animals in which sarcoma-180 cells stably grew was measured and used as an anticancer index. The same test was carried out twice, and the two measurements were averaged.

[1] = Solubility of hydroxychloroquine (statement); assay type: physicochemical

Structure (SMILES) | number of animals in which cancer cells were observed in the inguinal region by biopsy (Sarcoma-180 cells) | solubility at room temperature (in words) [1]
N.N.[Cl][Pt][Cl] [cisplatin, Cisplatin] | 4.5 animals | 
CCN(CCO)CCCC(C)Nc1ccnc2cc(Cl)ccc12 (centres unmarked) [hydroxychloroquine] |  | insoluble at room temperature
